# Key:
# FGFR1 = FGFR1 (Homo sapiens, UniProt P11362); experiment: Phosphorylation of FGFR1 in a cell-based system; settings: cells expressing FGFR1, increasing concentrations, submaximal concentration of FGF-2, FIG. 2
# Method: FIG. 2 is a graph showing the phosphorylation of FGFR1 in the presence of increasing concentrations of Compound 1o in a cell-based system.
# Cells expressing FGFR1 were exposed to increasing concentrations of Compound 10 in the presence of a submaximal concentration of FGF-2. Cells were then lysed, and the relative phosphorylation of FGFR1 was assessed using antibodies to non-phosphorylated and phosphorylated FGFR1. The results are shown in FIG. 2, which is a graph showing the phosphorylation of FGFR1 in the presence of increasing concentrations of Compound 10.
# HAP1 cells = experiment: Cell survival (XTT) of HAP1 cells in the absence of virus; format: cell-based; settings: compound 0.002-1 μM, FGF-2 1 ng/ml
# Method: (§1) Compound 10 was evaluated for its ability to reduce human coronavirus 229E induced cellular toxicity in HAP1 cells with and without the addition of a low concentration of FGF-2. HAP1 cells were seeded at a density of 1×10^4 cells/well in a volume of 100 μL in DMEM supplemented with 10% FBS. Following a 24-hour incubation at 37° C./5% CO2 the cells were pre-incubated with and without (media only) exogenous FGF-2 (1 ng/ml) and Compound 10 (0.002 μM, 0.008 μM, 0.04 μM, 0.2 μM, or 1 μM; plated in triplicate) for 24 hours prior (D-1) to the addition of human coronavirus 229E at a pre-determined titer. On the day of viral infection (D0), and one and two days thereafter (D1 and D2), freshly prepared FGF-2 and Compound 10 were added. The cultures were incubated for 4 days at 37° C./5% CO2, after which the cells were stained for cell survival with the tetrazolium dye XTT.
# [1] = target: T1, purified FGF-2/FGFR1 complex (Homo sapiens, UniProt P09038+P11362); experiment: Thermal stability assay (TSA) melting curve of the complex (FIG. 1); format: binding; settings: 25 μM compound, versus complex alone
# T1 construct: made in house; host or cells: Escherichia coli BL21 (DE3) Star
# T1 sequence (P11362 142-365 limits assumed): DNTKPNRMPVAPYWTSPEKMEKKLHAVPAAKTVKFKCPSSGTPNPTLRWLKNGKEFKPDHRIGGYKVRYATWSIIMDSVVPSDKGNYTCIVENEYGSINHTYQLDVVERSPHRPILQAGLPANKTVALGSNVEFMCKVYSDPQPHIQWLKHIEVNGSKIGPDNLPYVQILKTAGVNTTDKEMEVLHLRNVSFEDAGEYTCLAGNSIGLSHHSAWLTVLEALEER
# T1 sequence (P09038 156-288 limits assumed): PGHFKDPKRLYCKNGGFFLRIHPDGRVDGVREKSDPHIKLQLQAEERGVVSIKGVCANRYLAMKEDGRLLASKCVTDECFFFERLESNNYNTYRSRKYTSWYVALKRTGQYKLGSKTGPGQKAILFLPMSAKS
# Method: FIG. 1 is a graph showing the thermal stability assay (TSA) data of purified FGF-2.FGFR1 complex with and without the addition of Compound 1o (dotted line: without Compound 1o; solid line: 25 μM Compound 1o).
# TSA was utilized to biophysically characterize the recombinant human FGFR1/FGF2 complex in the presence or absence of selected compounds of formula (I), Compounds 1, 2a-2f, 20, 5, 60, and 8-13. Compound 1 was prepared according to the procedures described in Example 1, and the other compounds were obtained from commercial sources. The assay functions by protein denaturation over a temperature gradient. […] Changes in the melting temperature of the protein complex in the presence of each compound were monitored and compounds were screened/ranked using this method.
# Complex formation was verified by loading the complexed material on a size exclusion column (superdex 10 300GL S200) and observing the monodisperse peak corresponding to the FGF2/FGFR1 complex (˜ 40 kDa). […] The samples were processed using a Bio-Rad CFX C96 Touch quantitative polymerase chain reaction and run using the FRET assay settings with a heating ramp of 0.3° C./s cycling from 4 to 100° C. Data analysis was performed using the Bio-Rad CFX Manager Software (version 3.1, Bio-Rad) and changes in the melting temperature (Tm) of the complex in the presence of each compound were monitored. […]
# [2] = tested on: rodent model of stroke recovery (MCAO); experiment: Stroke recovery in vivo after middle cerebral artery occlusion (MCAO); settings: rat MCAO, 10 mg/kg i.v. on Day 1, 2, 3 after MCAO
# Method: Compound 10 was tested for its effectiveness in a rodent model of stroke recovery. Twenty male Sprague Dawley Rats (Charles River Laboratories) each weighing 300-400 g were used in this experiment. First, anesthesia was induced in an induction chamber with 2-3% isoflurane in N2O:O2 (2:1) and maintained with 1-1.5% isoflurane via face mask. Adequate depth of anesthesia was assessed by lack of withdrawal to hindlimb pinch and loss of eyeblink reflex. Once anesthetized, animals received cefazolin sodium (40 mg/kg, i.p.) and buprenorphine SR (0.9-1 mg/kg, s.c.). Cefazolin was used as a prophylactic antibiotic. A veterinary ophthalmic ointment (Sodium Chloride hypertonicity ophthalmic ointment (Muro 128 Sterile Ophthalmic 5% Ointment)) was applied to the eyes. […]
# Behavioral evaluations of sensorimotor function were done by investigators blinded to treatment assignment. […] For the forelimb-placing test, the examiner held the rat close to a tabletop and scored the rat's ability to place the forelimb on the tabletop in response to whisker, visual, tactile, or proprioceptive stimulation. Similarly, for the hindlimb placing test, the examiner assessed the rat's ability to place the hindlimb on the tabletop in response to tactile and proprioceptive stimulation. […]
# human coronavirus 229E = experiment: Anti-coronavirus activity, cell survival (XTT) of infected HAP1 cells; format: cell-based; settings: in combination with FGF-2 (1 ng/ml), compound 0.002-1 μM, 4 days incubation, FIG. 7
# Method: FIG. 7 is a graph showing the cell survival of HAP1 cells infected with human coronavirus 229E following a 4-day incubation period in the presence of Compound 1o. Compound 1o (0.002 μM, 0.008 μM, 0.04 μM, 0.2 μM, or 1 uM) and FGF-2 (1 ng/mL) were added on Day -1, Day 0, Day 1, and Day 2 of infection by human coronavirus 229E.
# as §1
# Sequence of FGFR1 (P11362 22-822, species assumed): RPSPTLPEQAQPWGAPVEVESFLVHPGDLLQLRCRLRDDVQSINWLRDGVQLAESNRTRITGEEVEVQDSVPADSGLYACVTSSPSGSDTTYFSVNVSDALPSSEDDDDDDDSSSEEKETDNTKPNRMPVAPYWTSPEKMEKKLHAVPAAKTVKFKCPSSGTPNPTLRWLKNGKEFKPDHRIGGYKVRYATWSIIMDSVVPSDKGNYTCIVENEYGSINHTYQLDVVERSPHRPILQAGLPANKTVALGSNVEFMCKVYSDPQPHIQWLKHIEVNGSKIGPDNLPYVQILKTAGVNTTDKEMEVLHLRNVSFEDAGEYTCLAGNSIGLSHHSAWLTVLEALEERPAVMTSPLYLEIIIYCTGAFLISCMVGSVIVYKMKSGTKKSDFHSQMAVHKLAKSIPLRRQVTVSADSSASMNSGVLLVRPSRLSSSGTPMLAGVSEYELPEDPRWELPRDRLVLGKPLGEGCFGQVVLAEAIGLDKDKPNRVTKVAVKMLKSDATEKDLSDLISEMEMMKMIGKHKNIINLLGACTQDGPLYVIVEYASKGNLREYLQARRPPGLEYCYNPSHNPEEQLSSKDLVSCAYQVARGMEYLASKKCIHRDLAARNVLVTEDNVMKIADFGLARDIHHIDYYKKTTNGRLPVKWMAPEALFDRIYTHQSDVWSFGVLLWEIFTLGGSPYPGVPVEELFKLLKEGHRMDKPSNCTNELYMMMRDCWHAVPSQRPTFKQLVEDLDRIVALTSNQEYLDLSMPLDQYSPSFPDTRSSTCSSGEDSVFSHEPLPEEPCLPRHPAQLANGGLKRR
# Sequence of FGFR1 (P09038 143-288 partner, species assumed): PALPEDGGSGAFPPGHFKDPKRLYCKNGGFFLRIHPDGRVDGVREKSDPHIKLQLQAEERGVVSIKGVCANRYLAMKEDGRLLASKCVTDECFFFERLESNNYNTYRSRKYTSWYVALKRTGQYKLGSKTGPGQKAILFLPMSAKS
structure (smiles),measurement,setting,value
"CCN(CC)c1ccc(C=O)cc1 [Compound 10, 4-diethylaminobenzaldehyde]",relative phosphorylation of FGFR1,FGFR1,augmented the effects of FGF-2
same,cell survival in the absence of the virus,HAP1 cells,no effect on cell survival
same,shift of the TSA melting curve / stability of the complex,[1],increased stability of the complex
same,rise in body weight following surgery,[2],not affected
same,"sensorimotor recovery (forelimb placing, hindlimb placing, body swing tests)","[2]; up to Day 21, versus vehicle, p<0.001 two-way repeated-measures ANOVA",clear and significant augmentation of sensorimotor recovery
same,cell survival of HAP1 cells infected with human coronavirus 229E,human coronavirus 229E,increases cell survival
